Test results: paper PMC8041284, “Tunable Methacrylamides for Covalent Ligand Directed Release Chemistry” (Journal of the American Chemical Society, 2021)
Read-outs that look alike come from different tables or passages of the source.

Molecular target: BTK (Homo sapiens, UniProt Q06187)
Assay: biochemical
[1] = read-out: BTK inhibition (%), 0.75 uM BTK, […] probe 3l, 15 min preincubation

Chain of BTK (Q06187 402-655 limits assumed): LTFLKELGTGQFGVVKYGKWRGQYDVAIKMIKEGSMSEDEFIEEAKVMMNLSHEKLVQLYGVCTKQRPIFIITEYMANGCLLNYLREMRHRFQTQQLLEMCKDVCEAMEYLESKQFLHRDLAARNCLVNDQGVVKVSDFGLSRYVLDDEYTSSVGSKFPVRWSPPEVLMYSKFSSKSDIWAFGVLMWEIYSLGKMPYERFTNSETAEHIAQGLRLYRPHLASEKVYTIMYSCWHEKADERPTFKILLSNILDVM

With `NC(=O)/C(=C/n1cnc(-c2cc(C(F)(F)F)cc(C(F)(F)F)c2)n1)c1cncnc1` [PCM-0215821] the inhibition at 10 µM [1] was -10%.
`CC(=O)OC(C)(C)CCC(=O)[C@](C)(O)[C@H]1[C@H](O)C[C@@]2(C)[C@@H]3CC=C4[C@@H](C[C@H](O)[C@@H](O)C4(C)C)[C@]3(C)C(=O)C[C@]12C` [PCM-0214543] was tested, and the inhibition at 10 µM [1] was -13.8%.
`Nc1nc(N)c2nc(-c3cccc(O)c3)c(-c3cccc(O)c3)nc2n1` [PCM-0094971] gave an inhibition at 10 µM [1] of 55.2%.
Molecule `NC(=O)c1ncn([C@@H]2O[C@H](CO)[C@@H](O)[C@H]2O)c1N` [PCM-0095118] has an inhibition at 10 µM [1] of 4.8%.
`C=C1/C(=C\C=C2/CCC[C@]3(C)[C@@H]([C@H](C)/C=C/[C@H](C)C(C)C)CC[C@@H]23)C[C@@H](O)C[C@@H]1O` [PCM-0214626] was tested, and the inhibition at 10 µM [1] was 4.1%.
`COc1ccc(CCc2cc(OC)c(OC)c(OC)c2)cc1O` [PCM-0216418] showed an inhibition at 10 µM [1] of -24.7%.
In the case of `O=C(C[S+]([O-])C(c1ccccc1)c1ccccc1)NO` (stereo not shown) [PCM-0216068], the inhibition at 10 µM (read-out: BTK inhibition (%)) is reported as -2.3%.
With `CC(=O)O[C@H]1C(=O)[C@@]2(C)[C@H]([C@H](OC(=O)c3ccccc3)[C@]3(O)C[C@H](O)C(C)=C1C3(C)C)[C@]1(OC(C)=O)CO[C@@H]1C[C@@H]2O` [PCM-0215022] the inhibition at 10 µM [1] was -17.1%.
`Cn1cc(C[C@@H](N)C(=O)O)c2ccccc21` [PCM-0215432] was tested, and the inhibition at 10 µM [1] was -11.1%.
`COc1cc2oc(-c3ccc(O)cc3)cc(=O)c2c(O)c1[C@@H]1O[C@H](CO)[C@@H](O)[C@H](O)[C@H]1O[C@@H]1O[C@H](CO)[C@@H](O)[C@H](O)[C@H]1O` [PCM-0216416] gave an inhibition at 10 µM [1] of -15.4%.
`CC1(C)OC[C@@H](COC(=O)CCc2ccc(OC[C@@H](O)CNCCNC(=O)N3CCOCC3)cc2)O1` [PCM-0216254] was tested, and the inhibition at 10 µM [1] was -3.1%.
For `O=C(O)c1cc(O)ccc1O` [PCM-0215019], the inhibition at 10 µM [1] was -21.4%.
In the case of `CC(C(=O)O)c1ccc2c(c1)CC(=O)c1ccccc1S2` (stereo not shown) [PCM-0095453], the inhibition at 10 µM [1] is reported as -15.9%.
Molecule `CC(C)c1ccc(CO)cc1` [PCM-0216002] has an inhibition at 10 µM [1] of -6.2%.
Work on `CC(C)=C1C/C=C(\C)CC/C=C(\C)CC1=O` [PCM-0216542] yielded an inhibition at 10 µM [1] of -4.6%.
In the case of `C[C@@H](O)[C@H]1C(=O)N2C(C(=O)O)=C(S[C@@H]3CN[C@H](C(=O)Nc4cccc(C(=O)O)c4)C3)[C@H](C)[C@H]12` [PCM-0216643], the inhibition at 10 µM [1] is reported as 0.8%.
`O=C[C@H](O)[C@@H](O)[C@H](O)[C@H](O)COP(=O)(O)O` [PCM-0216185] showed an inhibition at 10 µM [1] of 13.6%.
In the case of `CC(C)C[C@H](NC(=O)[C@H]1O[C@@H]1C(=O)O)C(=O)NCCCCN=C(N)N` [PCM-0215218], the inhibition at 10 µM [1] is reported as 15.4%.
`C/C=C1\C(=O)C[C@H]2[C@@H]3CCC4=CC(=O)CC[C@]4(C)[C@H]3CC[C@]12C` [PCM-0216120] gave an inhibition at 10 µM [1] of -1.6%.
In the case of `CC(C)C[C@H](NC(=O)[C@H](Cc1ccccc1)C[C@@H](O)[C@H](Cc1ccccc1)NC(=O)OC(C)(C)C)C(=O)N[C@@H](Cc1ccccc1)C(N)=O` [PCM-0215547], the inhibition at 10 µM [1] is reported as 5.4%.
Work on `CCOC(=O)c1cccc(N)c1` [PCM-0214922] yielded an inhibition at 10 µM [1] of -2.3%.
`O=P(O)(O)Oc1cccc2ccccc12` [PCM-0216167] gave an inhibition at 10 µM (read-out: BTK inhibition (%)) of -4.6%.
For `CN(CCOc1ccc(NS(C)(=O)=O)cc1)CCc1ccc(NS(C)(=O)=O)cc1` [PCM-0065138], the inhibition at 10 µM [1] was -7%.
Work on `O=C(c1cn(Cc2cncn2Cc2ccc(Br)cc2)cc1-c1cccc2ccccc12)N1CCOCC1` [PCM-0215301] yielded an inhibition at 10 µM [1] of -4.6%.
`CCCCCCCCC[C@H](O)CC(=O)CCc1ccc(O)c(OC)c1` [PCM-0216384] showed an inhibition at 10 µM [1] of -10.8%.
`Nc1cc(F)ccc1NC(=O)/C=C/c1cnn(C/C=C/c2ccccc2)c1` [PCM-0095774] gave an inhibition at 10 µM [1] of 9.3%.
`CC1CCc2cc(F)cc3c(=O)c(C(=O)O)cn1c23` (stereo not shown) [PCM-0085858] was tested, and the inhibition at 10 µM [1] was -10.1%.
For `CC(C)(Cc1ccc2ccccc2c1)NC[C@@H](O)COc1cccc(Cl)c1C#N` [PCM-0095749], the inhibition at 10 µM [1] was -11.7%.
With `CS(=O)(=O)Nc1cc2occ(NC=O)c(=O)c2cc1Oc1ccccc1` [PCM-0216251] the inhibition at 10 µM [1] was 6.2%.
In the case of `COc1cc(OC)c(C(=O)CCCN2CCCC2)c(OC)c1` [PCM-0085999], the inhibition at 10 µM [1] is reported as -12.5%.
Work on `C[C@@H]1O[C@@H](O[C@@H]2[C@@H](O)[C@H](OCCc3ccc(O)c(O)c3)O[C@H](COC(=O)/C=C/c3ccc(O)c(O)c3)[C@H]2O)[C@H](O)[C@H](O)[C@H]1O` [PCM-0216411] yielded an inhibition at 10 µM [1] of -11.6%.
In the case of `CCOC(=O)/C=C/c1ccc(OC)cc1` [PCM-0216286], the inhibition at 10 µM [1] is reported as -3.1%.
`C[C@]12CC[C@@H]3c4ccc(O)cc4C[C@@H](CCCCCCCCC[S+]([O-])CCCC(F)(F)C(F)(F)F)[C@H]3[C@@H]1CC[C@@H]2O` (stereo partly shown) [PCM-0214604] showed an inhibition at 10 µM [1] of 15.6%.
For `Cc1ccc(C(=O)N(CCCN)[C@@H](c2nc3cc(Cl)ccc3c(=O)n2Cc2ccccc2)C(C)C)cc1` [PCM-0095123], the inhibition at 10 µM [1] was 11.7%.
In the case of `CC[C@H]1OC(=O)C[C@@H](OC(C)=O)[C@H](C)[C@@H](O[C@@H]2O[C@H](C)[C@@H](O[C@H]3C[C@@](C)(O)[C@@H](OC(=O)CC(C)C)[C@H](C)O3)[C@H](N(C)C)[C@H]2O)[C@@H](CC=O)C[C@@H](C)C(=O)/C=C/C(C)=C/[C@@H]1CO[C@@H]1O[C@H](C)[C@@H](O)[C@@H](OC)[C@H]1OC` [PCM-0216006], the inhibition at 10 µM [1] is reported as -20.1%.
For `CC(C)(C)OC(=O)N[C@H]1CCCCC/C=C\[C@@H]2C[C@@]2(C(=O)NS(=O)(=O)C2CC2)NC(=O)[C@@H]2C[C@@H](OC(=O)N3Cc4cccc(F)c4C3)CN2C1=O` [PCM-0214602], the inhibition at 10 µM [1] was -12.5%.
Molecule `COc1cc(N2CCC(N3CCN(C)CC3)CC2)ccc1Nc1ncnc(Nc2ccccc2S(=O)(=O)C(C)C)n1` [PCM-0215273] has an inhibition at 10 µM [1] of 89%.
